System: normal human epidermal keratinocytes (NHEK)
Assay: Affymetrix gene array analysis, autoantigen gene expression
Format: cell-based
Conditions: 100 μM
Protocol: The gene array experiment was performed at the Core Facility of Genomics of the Medical College of Georgia, according to the instructions of the manufacturer (Affymetrix, Santa Clara, Calif.). Briefly, NHEK and OSC2 cells treated with 100 μM EGCG for different time period were extracted for total RNA, the RNA was processed for probes and hybridized with a cDNA microarray (HuG133A, Affymetrix) which represents 22,283 human series. DNA chips were read with a Hewlett-Packard GeneArray Scanner at a resolution of […] and were analyzed with the GeneSpring software (Silicon Genetics, Redwood City, Calif.). Details of this analysis will be published elsewhere (Hsu et al., manuscript in preparation).
Gene assays provide a valuable tool for studying the broad response of cells to agents, and we have used this approach to compare the differential effects of GTPP on gene expression in NHEK and human oral squamous carcinoma cells (Hsu, et al, manuscript in preparation). […] See also Hsu, S. et al. (2005) JPET 315:805-811, which is incorporated by reference in its entirety.

O=C(O[C@@H]1Cc2c(O)cc(O)cc2O[C@@H]1c1cc(O)c(O)c(O)c1)c1cc(O)c(O)c(O)c1 [EGCG, (−)-epigallocatechin-3-gallate]
60 kDa, SS-A/Ro (212852_s_at) expression, normalized (6 h): 0.85 | Ku autoantigen, 80 kDa (208642_s_at) expression, normalized (6 h): 0.96 | Ku autoantigen, 80 kDa (208643_s_at) expression, normalized (6 h): 0.98 | Nuclear antigen SP100 (202863_at) expression, normalized (6 h): 0.59 | Nuclear antigen SP100 (202864_s_at) expression, normalized (6 h): 0.64 | Nuclear antigen SP10075 kDa (213226_at) expression, normalized (6 h): 0.43 | RNA polymerase 1 (202692_s-at) expression, normalized (6 h): 0.50 | SS-B/La (201138_s_at) expression, normalized (6 h): 0.57 | SS-B/La (201139_s_at) expression, normalized (6 h): 0.43 | centromere protein C1 (20473_at) expression, normalized (6 h): 0.87 | coilin (203653_s_at) expression, normalized (6 h): 0.60 | coilin (203654_s_at) expression, normalized (6 h): 0.62 | fodrin-α (208611_s_at) expression, normalized (6 h): 0.56 | fodrin-α (215235_s_at) expression, normalized (6 h): 0.75 | golgin-67 (208797_s_at) expression, normalized (6 h): 0.92 | golgin-67 (208798_x_at) expression, normalized (6 h): 0.32 | golgin-67 (210425_x_at) expression, normalized (6 h): 0.19 | golgin-67 (213650_at) expression, normalized (6 h): 0.69 | scleroderma autoantigen 1, 75 kDa (213226_at) expression, normalized (6 h): 0.43 | spectrin-β non-erythrocyctic 1 (212071_s_at) expression, normalized (6 h): 0.95 | thyroid autoantigen 70 kDa (Ku antigen) (200792_at) expression, normalized (6 h): 1.13 | ADPRT [poly(ADP)-ribose polymerase] expression (6 h, vs time zero): 0.992 fold | ANAP12 expression (6 h, vs time zero): 0.4 fold | ANXA11 expression (6 h, vs time zero): 2.141 fold | CALR expression (6 h, vs time zero): 1.482 fold | CBARA1 expression (6 h, vs time zero): 0.498 fold | CENPA expression (6 h, vs time zero): 0.672 fold | CENPB expression (6 h, vs time zero): 0.498 fold | CENPC1 expression (6 h, vs time zero): 0.869 fold | CHD4 expression (6 h, vs time zero): 0.916 fold | COL17A1 expression (6 h, vs time zero): 1.043 fold | CTDSP1 expression (6 h, vs time zero): 1.25 fold | CTDSP2 expression (6 h, vs time zero): 0.92 fold | CTDSPL expression (6 h, vs time zero): 2.42 fold | DLAT expression (6 h, vs time zero): 1.031 fold | EPPK1 expression (6 h, vs time zero): 1.318 fold | FBL expression (6 h, vs time zero): 1.09 fold | FLJ31657 expression (6 h, vs time zero): 0.435 fold | FLNB (Filamin B, β) expression (6 h, vs time zero): 0.751 fold | FLNB (Filamin B, γ) expression (6 h, vs time zero): 0.875 fold | G22P1 (Thyroid autoantigen, 70 kDa, Ku antigen) expression (6 h, vs time zero): 1.127 fold | GMEB2 expression (6 h, vs time zero): 0.626 fold | GOLGA1 expression (6 h, vs time zero): 0.68 fold | GOLGA2 expression (6 h, vs time zero): 0.769 fold | GOLGA3 expression (6 h, vs time zero): 0.547 fold | GOLGA4 expression (6 h, vs time zero): 0.353 fold | GOLGA5 expression (6 h, vs time zero): 0.731 fold | GOLGB1 expression (6 h, vs time zero): 0.56 fold | HARS expression (6 h, vs time zero): 0.88 fold | HARSL expression (6 h, vs time zero): 0.88 fold | HSA6591 expression (6 h, vs time zero): 0.532 fold | HUMAUANTIG expression (6 h, vs time zero): 0.444 fold | IMP-2 expression (6 h, vs time zero): 0.635 fold | LAD1 expression (6 h, vs time zero): 0.954 fold | LMO4 expression (repeat 1) (6 h, vs time zero): 0.708 fold | LMO4 expression (repeat 2) (6 h, vs time zero): 1.133 fold | MGC5560 expression (repeat 1) (6 h, vs time zero): 1.646 fold | MGC5560 expression (repeat 2) (6 h, vs time zero): 2.605 fold | NS (Nucleostemin) expression (6 h, vs time zero): 0.519 fold | PDHB expression (6 h, vs time zero): 0.745 fold | PDX1 expression (6 h, vs time zero): 0.646 fold | PMSCL1, 75 kDa expression (6 h, vs time zero): 0.431 fold | PMSCL2 expression (6 h, vs time zero): 1.058 fold | POLR1B expression (6 h, vs time zero): 0.98 fold | POLR1D expression (6 h, vs time zero): 1.04 fold | POLR2A expression (repeat 1) (6 h, vs time zero): 1.80 fold | POLR2A expression (repeat 2) (6 h, vs time zero): 0.44 fold | POLR2B expression (6 h, vs time zero): 0.59 fold | POLR2C expression (6 h, vs time zero): 1.53 fold | POLR2D expression (6 h, vs time zero): 1.04 fold | POLR2E expression (6 h, vs time zero): 0.87 fold | POLR2F expression (6 h, vs time zero): 1.17 fold | POLR2G expression (6 h, vs time zero): 0.74 fold | POLR2H expression (6 h, vs time zero): 1.02 fold | POLR3C expression (6 h, vs time zero): 0.45 fold | POLR3G expression (6 h, vs time zero): 1.05 fold | PSME3 expression (6 h, vs time zero): 1.128 fold | RALY expression (6 h, vs time zero): 1.496 fold | SART1 expression (6 h, vs time zero): 1.462 fold | SLC25A16 expression (6 h, vs time zero): 1.099 fold | SNRP70 expression (6 h, vs time zero): 2.28 fold | SNRPA expression (6 h, vs time zero): 1.35 fold | SNRPB2 expression (6 h, vs time zero): 0.56 fold | SNRPB expression (repeat 1) (6 h, vs time zero): 0.76 fold | SNRPB expression (repeat 2) (6 h, vs time zero): 0.67 fold | SNRPC expression (6 h, vs time zero): 1.28 fold | SNRPD1 expression (repeat 1) (6 h, vs time zero): 0.658 fold | SNRPD1 expression (repeat 2) (6 h, vs time zero): 0.612 fold | SOX13 expression (6 h, vs time zero): 1.24 fold | SP100 expression (repeat 1) (6 h, vs time zero): 0.59 fold | SP100 expression (repeat 2) (6 h, vs time zero): 0.686 fold | SP110 expression (repeat 1) (6 h, vs time zero): 1.205 fold | SP110 expression (repeat 2) (6 h, vs time zero): 0.997 fold | SP110 expression (repeat 3) (6 h, vs time zero): 0.7 fold | SPTAN1 (α-fodrin) expression (repeat 1) (6 h, vs time zero): 0.56 fold | SPTAN1 (α-fodrin) expression (repeat 2) (6 h, vs time zero): 0.75 fold | SPTBN expression (6 h, vs time zero): 0.95 fold | SSA2 (autoantigen SS-A/Ro) expression (repeat 2) (6 h, vs time zero): 0.687 fold | SSA2 expression (repeat 1) (6 h, vs time zero): 0.739 fold | SSA2 expression (repeat 3) (6 h, vs time zero): 0.571 fold | SSA2 expression (repeat 4) (6 h, vs time zero): 0.85 fold | SSB (autoantigen La) expression (repeat 1) (6 h, vs time zero): 0.57 fold | SSB (autoantigen La) expression (repeat 2) (6 h, vs time zero): 0.427 fold | SSNA1 expression (6 h, vs time zero): 1.608 fold | SSSCA1 expression (6 h, vs time zero): 1.005 fold | STRN3 expression (6 h, vs time zero): 0.528 fold | TOP1 expression (repeat 1) (6 h, vs time zero): 0.84 fold | TOP1 expression (repeat 2) (6 h, vs time zero): 0.33 fold | UBTF expression (6 h, vs time zero): 0.501 fold | XRCC5 (Ku autoantigen, 80 kDa) expression (repeat 1) (6 h, vs time zero): 0.977 fold | XRCC5 (Ku autoantigen, 80 kDa) expression (repeat 2) (6 h, vs time zero): 0.958 fold | dJ963E22.1 expression (6 h, vs time zero): 0.723 fold | α-NAC expression (6 h, vs time zero): 0.0443 fold | 60 kDa, SS-A/Ro (210438_x_at) expression, normalized (24 h): 0.88 | 60 kDa, SS-A/Ro (212852_s_at) expression, normalized (24 h): 0.94

— patent publication US8287923B2, “Compositions and methods for treating immune disorders” (priority 2005, dated 2012)
